Literature values in PubChem BioAssay AID1259409 (Chemical Carcinogenesis Research Information System (CCRIS), 2018).

Tested on: rodent chemically induced tumor inhibition, incidence and multiplicity
Experiment: CCRIS tumor inhibitor studies
Settings: Promoter: NONE USED

Compound	tumour outcome (control, treated, inhibition, significance) (Carcinogen: DIETHYLNITROSAMINE, 55-18-5, Dose [Inhibitor]: 100 PPM IN DIET FOR 6 WK PRIOR TO CARCINOGEN DOSE (STUDY DURATION: 48 WK), Route [Inhibitor]: ORAL, Species: FISH, Strain/Sex: MT. SHASTA RAINBOW/MALE, FEMALE, Target Tissue: Type of Lesion: LIVER: HEPATOCELLULAR CARCINOMA AND HEPATOCHOLANGIOCELLULAR CARCINOMA, Dose [Carcinogen]: 250 PPM IN AQUEOUS SOLUTION FOR 24 HR)	tumour outcome (control, treated, inhibition, significance) (Carcinogen: ETHYL CARBAMATE, 51-79-6, Dose [Inhibitor]: 0, 0.04 MG/G PER DOSE IN 0.01 ML OF 0.9% SALINE ADMINISTERED IN 4 DOSES AT 3 HR INTERVALS BEGINNING 30 MIN PRIOR TO CARC, Route [Inhibitor]: INTRAPERITONEAL, Species: MOUSE, Strain/Sex: B6C3F1/MALE, Target Tissue: Type of Lesion: LIVER: HEPATOMA, Dose [Carcinogen]: 0.125 MG/G ONCE)	tumour outcome (control, treated, inhibition, significance) (Carcinogen: ETHYL CARBAMATE, 51-79-6, Dose [Inhibitor]: 0, 0.04 MG/G PER DOSE IN 0.01 ML OF 0.9% SALINE ADMINISTERED IN 4 DOSES AT 3 HR INTERVALS BEGINNING 30 MIN PRIOR TO CARC, Route [Inhibitor]: INTRAPERITONEAL, Species: MOUSE, Strain/Sex: B6C3F1/MALE, Target Tissue: Type of Lesion: LIVER: HEPATOMA, Dose [Carcinogen]: 0.25 MG/G ONCE)	tumour outcome (control, treated, inhibition, significance) (Carcinogen: ETHYL CARBAMATE, 51-79-6, Dose [Inhibitor]: 0, 0.04 MG/G PER DOSE IN 0.01 ML OF 0.9% SALINE ADMINISTERED IN 4 DOSES AT 3 HR INTERVALS BEGINNING 30 MIN PRIOR TO CARC, Route [Inhibitor]: INTRAPERITONEAL, Species: MOUSE, Strain/Sex: B6C3F1/MALE, Target Tissue: Type of Lesion: LIVER: HEPATOMA, Dose [Carcinogen]: 0.5 MG/G ONCE)	tumour outcome (control, treated, inhibition, significance) (Carcinogen: VINYL CARBAMATE, 15805-73-9, Dose [Inhibitor]: 0, 0.04 MG/G PER DOSE IN 0.01 ML OF 0.9% SALINE ADMINISTERED IN 4 DOSES AT 3 HR INTERVALS BEGINNING 30 MIN PRIOR TO CARC, Route [Inhibitor]: INTRAPERITONEAL, Species: MOUSE, Strain/Sex: B6C3F1/MALE, Target Tissue: Type of Lesion: LIVER: HEPATOMA, Dose [Carcinogen]: 0.003 MG/G ONCE)	tumour outcome (control, treated, inhibition, significance) (Carcinogen: VINYL CARBAMATE, 15805-73-9, Dose [Inhibitor]: 0, 0.04 MG/G PER DOSE IN 0.01 ML OF 0.9% SALINE ADMINISTERED IN 4 DOSES AT 3 HR INTERVALS BEGINNING 30 MIN PRIOR TO CARC, Route [Inhibitor]: INTRAPERITONEAL, Species: MOUSE, Strain/Sex: B6C3F1/MALE, Target Tissue: Type of Lesion: LIVER: HEPATOMA, Dose [Carcinogen]: 0.008 MG/G ONCE)	tumour outcome (control, treated, inhibition, significance) (Carcinogen: VINYL CARBAMATE, 15805-73-9, Dose [Inhibitor]: 0, 0.04 MG/G PER DOSE IN 0.01 ML OF 0.9% SALINE ADMINISTERED IN 4 DOSES AT 3 HR INTERVALS BEGINNING 30 MIN PRIOR TO CARC, Route [Inhibitor]: INTRAPERITONEAL, Species: MOUSE, Strain/Sex: B6C3F1/MALE, Target Tissue: Type of Lesion: LIVER: HEPATOMA, Dose [Carcinogen]: 0.025 MG/G ONCE)
Clc1cccc(-c2ccc(Cl)c(Cl)c2Cl)c1Cl	105/131 (80%), 112/140 (80%), 0%, not significant	–	–	–	–	–	–
NCCOc1c(Cl)cc(Cl)cc1-c1ccccc1	–	21/21 (100%), 23/25 (92%), 8%, not calculated	25/25 (100%), 24/24 (100%), 0%, not calculated	22/22 (100%), 21/22 (95%), 5%, not calculated	21/24 (88%), 25/25 (100%), -14%, not calculated	26/26 (100%), 22/23 (96%), 4%, not calculated	23/23 (100%), 24/25 (96%), 4%, not calculated
